Structures are written as SMILES.

One assay relates to HCV 1b-377-neo replicon cells. Kind of assay: HCV replicon assay, HCV 1b-377-neo replicon cells (1b FRET). The settings on record: HCV 1b-377-neo replicon cells; HCV 1b genotype; read-out: EC50 range against HCV 1b (Table 2, Range). In kind it is cell-based, Hepatitis C virus genotype 1b. In a few lines:
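Compounds were tested in genotype 1b subgenomic replicon cells carrying a neomycin marker, alongside a matched replicon line with an NS5A Y2065H substitution that confers resistance to a reference NS5A inhibitor.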
As for `COC(=O)N[C@@H](C(=O)N1CCC[C@H]1c1ncc(-c2ccc(-c3ccc(-c4cnc([C@@H]5CCCN5C(=O)[C@H](NC(=O)OC)c5ccccc5)[nH]4)cc3C)nc2)[nH]1)c1ccccc1` [Example 138], the EC50 – broadly, the concentration at which the effect is half-maximal – fell in the range of 0.001 to 0.999 nM.

Staying with this assay, now noted: Hepatitis C virus, HCV 1b-377-neo replicon cells; HCV 1b genotype; read-out: EC50 range against HCV 1b (Table 2, Range).
In the case of `COC(=O)N[C@@H](C(=O)N1CCC[C@H]1c1ncc(-c2ccc(-c3ccc(-c4cnc([C@@H]5CCCN5C(=O)Cc5cccnc5)[nH]4)cc3C)cc2)[nH]1)c1ccccc1` [Example 127, methyl ((1R)-2-((2S)-2-(5-(2′-methyl-4′-(2-((2S)-1-(3-pyridinylacetyl)-2-pyrrolidinyl)-1H-imidazol-5-yl)-4-biphenylyl)-1H-imidazol-2-yl)-1-pyrrolidinyl)-2-oxo-1-phenylethyl)carbamate], the EC50 was in the range of 0.001 to 0.999 nM. Consider `COC(=O)N[C@@H](C(=O)N1CCC[C@H]1c1ncc(-c2ccc(-c3ccc(-c4cnc([C@@H]5CCCN5C(=O)[C@@H]5CCCO5)[nH]4)cc3C)cc2)[nH]1)c1ccccc1` [Example 128, methyl ((1R)-2-((2S)-2-(5-(2′-methyl-4′-(2-((2S)-1-((2S)-tetrahydro-2-furanylcarbonyl)-2-pyrrolidinyl)-1H-imidazol-5-yl)-4-biphenylyl)-1H-imidazol-2-yl)-1-pyrrolidinyl)-2-oxo-1-phenylethyl)carbamate], for which the half-maximal effective concentration (EC50) was 0.001 to 0.999 nM. Still for that read-out and setting: to `COC(=O)N[C@@H](C(=O)N1CCC[C@H]1c1ncc(-c2ccc(-c3ccc(-c4cnc([C@@H]5CCCN5C(=O)[C@@H](c5ccccc5)N(C)C)[nH]4)cc3C)c(C)c2)[nH]1)c1ccccc1` [Example 129, methyl ((1R)-2-((2S)-2-(5-(4′-(2-((2S)-1-((2R)-2-(dimethylamino)-2-phenylacetyl)-2-pyrrolidinyl)-1H-imidazol-5-yl)-2,2′-dimethyl-4-biphenylyl)-1H-imidazol-2-yl)-1-pyrrolidinyl)-2-oxo-1-phenylethyl)carbamate] belongs 0.001 to 0.999 nM. `CN(C)[C@@H](C(=O)N1CCC[C@H]1c1ncc(-c2ccc(-c3ccc(-c4cnc([C@@H]5CCCN5C(=O)[C@@H](c5ccccc5)N(C)C)[nH]4)cc3C(F)(F)F)cc2)[nH]1)c1ccccc1` [Example 130]: the EC50 was in the range of 0.001 to 0.999 nM.

Consider `COC(=O)N[C@@H](C(=O)N(C)[C@@H](C)c1ncc(-c2ccc(-c3ccc(-c4cnc([C@@H]5CCCN5C(=O)[C@@H](c5ccccc5)N(C)C)[nH]4)cc3)cc2)[nH]1)c1ccccc1` [Example 131.1-1, methyl ((1R)-2-(((1S)-1-(5-(4′-(2-((2S)-1-((2R)-2-(dimethylamino)-2-phenylacetyl)-2-pyrrolidinyl)-1H-imidazol-5-yl)-4-biphenylyl)-1H-imidazol-2-yl)ethyl)(methyl)amino)-2-oxo-1-phenylethyl)carbamate], for which the EC50 was 0.001 to 0.999 nM.

With `COC(=O)N[C@@H](C(=O)N(C)[C@@H](C)c1ncc(-c2ccc(-c3ccc(-c4cnc([C@@H]5CCCN5C(=O)[C@@H](c5ccccc5)N5CCCCC5)[nH]4)cc3)cc2)[nH]1)c1ccccc1` [Example 131.1-2, methyl ((1R)-2-(methyl((1S)-1-(5-(4′-(2-((2S)-1-((2R)-2-phenyl-2-(1-piperidinyl)acetyl)-2-pyrrolidinyl)-1H-imidazol-5-yl)-4-biphenylyl)-1H-imidazol-2-yl)ethyl)amino)-2-oxo-1-phenylethyl)carbamate], the concentration giving a half-maximal response (EC50) fell in the range of 0.001 to 0.999 nM.

Regarding `O=C([C@@H](c1ccccc1)N1CCCC1)N1CCC[C@H]1c1ncc(-c2ccc(-c3ccc(-c4cnc([C@@H]5CCCN5C(=O)[C@@H](c5ccccc5)N5CCCC5)[nH]4)cc3C(F)(F)F)cc2)[nH]1` [Example 131], the EC50 lay within 0.001 to 0.999 nM. Same read-out and setting: to `CN(C)[C@@H](C(=O)N1CCC[C@H]1c1ncc(-c2ccc(-c3ccc(-c4cnc([C@@H]5CCCN5C(=O)[C@@H](c5ccccc5)N(C)C)[nH]4)cn3)cc2)[nH]1)c1ccccc1` [Example 132, (1R)-2-((2S)-2-(5-(6-(4-(2-((2S)-1-((2R)-2-(dimethylamino)-2-phenylacetyl)-2-pyrrolidinyl)-1H-imidazol-5-yl)phenyl)-3-pyridinyl)-1H-imidazol-2-yl)-1-pyrrolidinyl)-N,N-dimethyl-2-oxo-1-phenylethanamine] belongs 0.001 to 0.999 nM; to `O=C([C@H](O)c1ccccc1)N1CCC[C@H]1c1ncc(-c2ccc(-c3ccc(-c4cnc([C@@H]5CCCN5C(=O)[C@H](O)c5ccccc5)[nH]4)cn3)cc2)[nH]1` [Example 133, (1R)-2-((2S)-2-(5-(6-(4-(2-((2S)-1-((2R)-2-hydroxy-2-phenylacetyl)-2-pyrrolidinyl)-1H-imidazol-5-yl)phenyl)-3-pyridinyl)-1H-imidazol-2-yl)-1-pyrrolidinyl)-2-oxo-1-phenylethanol], 1 to 99 nM; to `COC(=O)N[C@@H](C(=O)N1CCC[C@H]1c1ncc(-c2ccc(-c3ccc(-c4cnc([C@@H]5CCCN5C(=O)[C@H](NC(=O)OC)c5ccccc5)[nH]4)cn3)cc2)[nH]1)c1ccccc1` [Example 134, methyl ((1R)-2-((2S)-2-(5-(6-(4-(2-((2S)-1-((2R)-2-((methoxycarbonyl)amino)-2-phenylacetyl)-2-pyrrolidinyl)-1H-imidazol-5-yl)phenyl)-3-pyridinyl)-1H-imidazol-2-yl)-1-pyrrolidinyl)-2-oxo-1-phenylethyl)carbamate], 0.001 to 0.999 nM. As for `CO[C@@H](C(=O)N1CCC[C@H]1c1ncc(-c2ccc(-c3ccc(-c4cnc([C@@H]5CCCN5C(=O)[C@H](OC)c5ccccc5)[nH]4)cn3)cc2)[nH]1)c1ccccc1` [Example 135, 5-(2-((2S)-1-((2R)-2-methoxy-2-phenylacetyl)-2-pyrrolidinyl)-1H-imidazol-5-yl)-2-(4-(2-((2S)-1-((2R)-2-methoxy-2-phenylacetyl)-2-pyrrolidinyl)-1H-imidazol-5-yl)phenyl)pyridine], the half-maximal effective concentration (EC50) lay in the range of 0.001 to 0.999 nM. Take `Cc1cc(-c2cnc([C@@H]3CCCN3C(=O)[C@@H](c3ccccc3)N(C)C)[nH]2)ccc1-c1ccc(-c2cnc([C@@H]3CCCN3C(=O)[C@@H](c3ccccc3)N(C)C)[nH]2)cn1` [Example 136, (1R)-2-((2S)-2-(5-(6-(4-(2-((2S)-1-((2R)-2-(dimethylamino)-2-phenylacetyl)-2-pyrrolidinyl)-1H-imidazol-5-yl)-2-methylphenyl)-3-pyridinyl)-1H-imidazol-2-yl)-1-pyrrolidinyl)-N,N-dimethyl-2-oxo-1-phenylethanamine]: the EC50 fell in the range of 0.001 to 0.999 nM. In the case of `CC(=O)N[C@@H](C(=O)N1CCC[C@H]1c1ncc(-c2ccc(-c3ccc(-c4cnc([C@@H]5CCCN5C(=O)[C@H](NC(C)=O)c5ccccc5)[nH]4)cn3)cc2)[nH]1)c1ccccc1` [Example 139, N-((1R)-2-((2S)-2-(5-(6-(4-(2-((2S)-1-((2R)-2-acetamido-2-phenylacetyl)-2-pyrrolidinyl)-1H-imidazol-5-yl)phenyl)-3-pyridinyl)-1H-imidazol-2-yl)-1-pyrrolidinyl)-2-oxo-1-phenylethyl)acetamide], the half-maximal effective concentration (EC50) was in the range of 0.001 to 0.999 nM.

As to `COC(=O)N[C@@H](C(=O)N1CCC[C@H]1c1ncc(-c2ccc(-c3ccc(-c4cnc([C@@H]5CCCN5C(=O)[C@@H](c5ccccc5)N(C)C)[nH]4)cn3)cc2)[nH]1)c1ccccc1` [Example 140, methyl ((1R)-2-((2S)-2-(5-(4-(5-(2-((2S)-1-((2R)-2-(dimethylamino)-2-phenylacetyl)-2-pyrrolidinyl)-1H-imidazol-5-yl)-2-pyridinyl)phenyl)-1H-imidazol-2-yl)-1-pyrrolidinyl)-2-oxo-1-phenylethyl)carbamate], the EC50 lay within 0.001 to 0.999 nM. Turning to `COC(=O)N[C@@H](C(=O)N1CCC[C@H]1c1ncc(-c2ccc(-c3ccc(-c4cnc([C@@H]5CCCN5C(=O)[C@H]5CCCO5)[nH]4)cn3)cc2)[nH]1)c1ccccc1` [Example 141, methyl ((1R)-2-oxo-1-phenyl-2-((2S)-2-(5-(4-(5-(2-((2S)-1((2R)-tetrahydro-2-furanylcarbonyl)-2-pyrrolidinyl)-1H-imidazol-5-yl)-2-pyridinyl)phenyl)-1H-imidazol-2-yl)-1-pyrrolidinyl)ethyl)carbamate], the EC50 was 0.001 to 0.999 nM.

With `COC(=O)N[C@@H](C(=O)N1CCC[C@H]1c1ncc(-c2ccc(-c3ccc(-c4cnc([C@@H]5CCCN5C(=O)C5CCN(C)CC5)[nH]4)cn3)cc2)[nH]1)c1ccccc1` [Example 142, methyl ((1R)-2-((2S)-2-(5-(4-(5-(2-((2S)-1-((1-methyl-4-piperidinyl)carbonyl)-2-pyrrolidinyl)-1H-imidazol-5-yl)-2-pyridinyl)phenyl)-1H-imidazol-2-yl)-1-pyrrolidinyl)-2-oxo-1-phenylethyl)carbamate], the EC50 was in the range of 1 to 99 nM. Still for that read-out and setting: then `COC(=O)N[C@@H](C(=O)N1CCC[C@H]1c1ncc(-c2ccc(-c3ccc(-c4cnc([C@@H]5CCCN5C(=O)Cc5cccnc5)[nH]4)cn3)cc2)[nH]1)c1ccccc1` [Example 143, methyl ((1R)-2-oxo-1-phenyl-2-((2S)-2-(5-(4-(5-(2-((2S)-1-(3-pyridinylacetyl)-2-pyrrolidinyl)-1H-imidazol-5-yl)-2-pyridinyl)phenyl)-1H-imidazol-2-yl)-1-pyrrolidinyl)ethyl)carbamate], with 0.001 to 0.999 nM; and `COC(=O)N[C@@H](C(=O)N1CCC[C@H]1c1ncc(-c2ccc(-c3ccc(-c4cnc([C@@H]5CCCN5C(=O)N5CCOCC5)[nH]4)cn3)cc2)[nH]1)c1ccccc1` [Example 144, methyl ((1R)-2-((2S)-2-(5-(4-(5-(2-((2S)-1-(4-morpholinylcarbonyl)-2-pyrrolidinyl)-1H-imidazol-5-yl)-2-pyridinyl)phenyl)-1H-imidazol-2-yl)-1-pyrrolidinyl)-2-oxo-1-phenylethyl)carbamate], with 0.001 to 0.999 nM; and `COC(=O)N[C@@H](C(=O)N1CCC[C@H]1c1ncc(-c2ccc(-c3ccc(-c4cnc([C@@H]5CCCN5C(=O)[C@H](NC(=O)OC)c5ccccc5)[nH]4)cn3)nc2)[nH]1)c1ccccc1` [Example 145, dimethyl (2,2′-bipyridine-5,5′-diylbis(1H-imidazole-5,2-diyl(2S)-2,1-pyrrolidinediyl((1R)-2-oxo-1-phenyl-2,1-ethanediyl)))biscarbamate], with 0.001 to 0.999 nM.

For the origin of these results see patent US8574563B2 (Bristol-Myers Squibb Company, priority 2006, dated 2013).
